Measurements taken from patent US20100297223A1, “PHARMACEUTICAL DOSAGE FORM COMPRISING A LIQUID OR FLOWABLE CORE COMPOSITION” (ABBOTT GMBH & CO. KG, priority 2007, published 2010).

Columns and labels:
[1] = Water activity aw of capsule fill (Pawkit water activity meter); format: physicochemical; conditions: fill emptied from gelatine capsules size 00, 24 h after capsule preparation
Excerpt: Water activity aw is a measure of unbound free water in a system that is available to support chemical (or biological) reactions. It is defined as the vapour pressure of water divided by that of pure water at the same temperature. When a composition is in moisture equilibrium with its environment, its water activity is quantitatively equal to the relative humidity in head space of a container containing the composition, divided by 100. In particular during prolonged periods of storage, an excess of free water will migrate into the capsule shell and soften and eventually liquefy the capsule material. There are several factors that control water activity in a system. Dissolved species, e.g. salts, or sugars, interact with water through dipole-dipole, ionic, and hydrogen bonds. […] Water activity can be measured with commercially available equipment, such as the Pawkit water activity meter available from Decagon Devices, Inc. For the purposes herein, the water activity aw is suitably measured at a temperature of 25° C. […]
Twenty-four hours after the capsule preparation, the initial values of water activity and mechanical strength of the capsule shell were measured.
Capsules were stored for three months at 25° C., 60% relative humidity and 40° C., 75% relative humidity, respectively. Then, water activity and mechanical strength of the capsule shell were measured. […]

Miscibility with water = format: physicochemical

- aw (water activity), Initial [1]: 0.12
- Miscibility with water (Miscibility with water): miscible with water in any ratio
Compound: CC(CCN1CCCC1=O)N1CCCC1=O (centres unmarked) [1,3-bis-(pyrrolidon-1-yl)-butane]
